Where a SMILES comes first, the peptide text is derived from it. Where no end group is shown, it is not given here. The star is where a group is joined. Cbz = O=C(OCc1ccccc1)*
Experiments:
[1] = system: PDX1; assay: PDX1 protein level, degradation and ubiquitination in HEK293 cells co-transfected with MST1; assay type: cell-based, mouse
From the text: pCMV-myc-MST1 and kinase-dead (MST1-K59; dnMST1) are described in Yamamoto et al., J. Clin. Invest. 111 (2003), 1463-1474. Mouse pB.RSV.PDX1-GFP is described in Kawamori et al., Diabetes 52 (2003) 2896-2904. pcDNA3 Myr-HA Akt1, HA-Ubiquitin and pCDNA3 Jnk1a1 (apf)(dn-JNK) plasmids were obtained from Addgene (Cambridge, Mass.). Mouse PDX1 mutants (T11, T126, T152, T155, T214 and T231) in pCGIG5 vector were generated by site-directed mutagenesis as described previously (Frogne et al., 7 (2012), e35233). All mutations were verified by sequencing. To make bacterial expression plasmids for PDX1 mutants, the complete mouse PDX1 CDS (wild type and mutants) has been amplified by PCR using a specific set of primers from pCGIG5 plasmids and cloned into a pGEX-6P-1 bacterial expression vector. The rat insulin driven luciferase vector (RIP-Luc) was constructed by subcloning a 700 by fragment containing −660 bp of the rat 2 insulin promoter into a pMCS-Green-Renilla-Luc vector (Thermo Scientific). pCMV-Red firefly Luc vector was obtained from Thermo Scientific.
HEK293 cells were cultured in 10-cm cell culture dishes and transfected with HA-ubiquitin, PDX1 and MST1 expression plasmids for 48 h. For ubiquitination in human islets, 5000 islets per condition were transfected with ubiquitin plasmid. After 24 h, islets were infected with Ad-GFP or Ad-MST1 for 6 h and kept for another 48 h. […] Lysates were immunoprecipitated with PDX1-specific antibody overnight at 4° C. Immunocomplexes were then captured with Protein A Agarose by rotation at 4° C. for 4 h. After extensive washing, immunoprecipitates were boiled in sample buffer and proteins subjected to western blotting with ubiquitin-specific antibody.
HEK293 cells were transfected with PDX1 alone, or together with MST1 expressing-plasmids. Human islets were infected with Ad-GFP (control) or Ad-MST1. At 48 h after post-transfection/infection, cells were treated with 50 μg/ml translation initiation inhibitor cycloheximde (CHX) to the medium at the times indicated and the lysates were subjected to western blotting.

[2] = system: MST1; assay: MST1 activation and AKT signalling in INS-1E cells and human islets, western blotting; assay type: cell-based, rat; details: for glucose- and cytokine-induced P-MST1, MST1-cleavage and apoptosis: INS-1E cells, 72 h, GLP1 and insulin 100 nM
Method: Islet purity was greater than 95% as judged by dithizone staining (if this degree of purity was not achieved by routine isolation, islets were handpicked). Islets from MST1^−/− mice and their WT littermates were isolated as described previously (Schulthess et al., Cell. Metab. 9 (2009) 125-139). Pancreata were perifused with a Liberase™ (#05401119001, Roche, Mannheim, Germany) solution according to the manufacturer's instructions and digested at 37° C., followed by washing and handpicking Human islets were cultured in complete CMRL-1066 (Invitrogen) medium at 5.5 mM glucose and mouse islets and INS-1E cells at complete RPMI-1640 medium at 11.1 mM glucose and HEK293 cells were cultured in Dulbecco's modified Eagle's medium (DMEM). All media included with glutamate, 1% penicillin-streptomycin and 10% fetal bovine serum (FBS, all PAA). INS-1E medium was supplemented with 10 mM HEPES, 1 mM sodium pyruvate and 50 μM β-mercaptoethanol. Islets and INS-1E were exposed to complex diabetogenic conditions: 22.2-33.3 mM glucose, 0.5 mM palmitic acid, the mixture of 2 ng/ml recombinant human IL-1β (R&D Systems, Minneapolis, Minn.)+1,000 U/ml recombinant human IFN-γ (PeProTech) for 72 h, 100 μM H2O2 for 6 h, 1 mM streptozotocin (STZ) for 8 h or 1 mM thapsigargin for 6 h (all Sigma).
At the end of the incubation periods, islets and INS1E cells were washed in ice-cold PBS and lysed in lysis buffer containing 20 mM Tris acetate, 0.27 M sucrose, 1 mM EDTA, 1 mM EGTA, 50 mM NaF, 1% Triton X-100, 5 mM sodium pyrophosphate and 10 mM β-glycerophosphate. Prior to use, the lysis buffer was supplemented with Protease- and Phosphatase-inhibitors (Pierce, Rockford, Ill., USA). Protein concentrations were determined with the BCA protein assay (Pierce). Equivalent amounts of protein from each treatment group were run on a NuPAGE 4-12% Bis-Tris gel (Invitrogen) and electrically transferred onto PVDF membranes. […] Membrane was developed using a chemiluminescence assay system (Pierce) and analyzed using DocIT®LS image acquisition 6.6a (UVP BioImaging Systems, Upland, Calif., USA).

[3] = system: INS-1E cells; assay: Glucose stimulated insulin secretion (GSIS) in INS-1E cells; assay type: cell-based, rat; details: Ad-MST1 72 h
Method: (§1) For acute insulin release in response to glucose, primary human and mouse islets and INS1 cells were washed and pre-incubated (30 min) in Krebs-Ringer bicarbonate buffer (KRB) containing 2.8 mM glucose and 0.5% BSA. KRB was then replaced by KRB 2.8 mM glucose for 1 h (basal), followed by an additional 1 h in KRB 16.7 mM glucose. Insulin content was extracted with 0.18N HCl in 70% ethanol. Insulin was determined using human and mouse insulin ELISA (ALPCO Diagnostics, Salem, N.H.). Secreted insulin was normalized to insulin content.

[4] = system: PDX1; assay: Luciferase reporter assay of PDX1 transcriptional activity (rat Ins2-Luc) in HEK293 cells; assay type: cell-based; details: HEK293, 48 h
Method: The transcriptional activity of the PDX1 at promoter level was evaluated using rat Ins2-Luc renilla reporter gene HEK293 cells were transfected with Ins2-Luc renilla, pCMV-firefly, PDX1-WT or PDX1-T11A, alone or together with Myc-MST1 expressing plasmids for 48 h. INS-1E cells transfected with Ins2-Luc renilla and pCMV-firefly plasmids and were infected with Ad-GFP or Ad-MST1 for 48 h. Luciferase activity determined using the Renilla-Firefly Luciferase Dual Assay Kit according to the manufacturer's instructions (Pierce). pCMV-firefly was used as transfection control.

[5] = system: PDX1 target genes; assay: RT-PCR of PDX1 target genes in INS-1E cells; assay type: cell-based, rat; details: INS-1E cells (FIG. 21 d)
From the text: (§2) Total RNA was isolated from cultured human islets and INS1 cells using TRIzol (Invitrogen), and RT-PCR performed as described previously (Shu et al., Diabetologica 55 (2012), 3296-307). For analysis, the Applied Biosystems StepOne Real-Time PCR system (Applied Biosystems, CA, USA) with TaqMan® Fast Universal PCR Master Mix for TaqMan assays (Applied Biosystems) was used. TaqMan® Gene Expression Assays were used for pdx1 (Hs00426216_m1), SLC2A2 (Hs01096905_m1), GCK (Hs01564555_m1), insulin (Hs02741908_m1), PPIA (Hs99999904_m1) and tubulin (Hs00362387_m1) for human and PDX1 (Rn00755591_m1), SLC2A2 (Rn00563565_m1), GCK (Rn00688285_m1), INS1 (Rn02121433_g1), […] (Rn01774648_g1), BCL2L11 (Hs01083836_m1), PPIA (Rn00690933_m1) and tuba1a (Rn01532518_g1) for rat.

[6] = system: human islets; assay: Glucose stimulated insulin secretion (GSIS) in human islets; assay type: cell-based; details: Ad-MST1 72 h
Method: as §1

[7] = system: PDX1 target genes; assay: RT-PCR of PDX1 target genes in human islets; assay type: cell-based; details: human islets (FIG. 15 q)
From the text: as §2

[8] = molecular target: T1, MST1 (Homo sapiens, UniProt Q13043); assay: In vitro kinase assay, phosphorylation of PDX1 by recombinant MST1; assay type: biochemical
T1 construct: purchased Upstate Biotechnology
T1 sequence (Q13043 1-487): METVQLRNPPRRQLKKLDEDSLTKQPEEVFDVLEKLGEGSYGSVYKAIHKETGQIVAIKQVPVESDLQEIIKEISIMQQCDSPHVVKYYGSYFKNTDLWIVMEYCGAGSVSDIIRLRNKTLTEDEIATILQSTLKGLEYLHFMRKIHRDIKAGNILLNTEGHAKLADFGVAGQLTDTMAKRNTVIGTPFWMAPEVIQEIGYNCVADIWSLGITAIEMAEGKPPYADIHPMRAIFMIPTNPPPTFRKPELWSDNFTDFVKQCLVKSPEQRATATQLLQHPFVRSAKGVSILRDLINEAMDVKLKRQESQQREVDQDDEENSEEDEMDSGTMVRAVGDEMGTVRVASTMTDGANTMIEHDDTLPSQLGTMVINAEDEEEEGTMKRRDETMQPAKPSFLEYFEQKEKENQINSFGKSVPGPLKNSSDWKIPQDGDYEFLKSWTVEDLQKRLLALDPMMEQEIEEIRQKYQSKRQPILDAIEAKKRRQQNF
Method: For immunoprecipitation, cells were washed with PBS and lysed in cold buffer containing 20 mM Tris-HCl (pH 7.5), 150 mM NaCl, 0.27 M sucrose, 1 mM EDTA, 1 mM EGTA, 50 mM NaF, 1% NP-40, 5 mM sodium pyrophosphate and 10 mM β-glycerophosphate supplemented with proteinase/phosphatase inhibitors for 30 min on ice. Lysates were centrifuged at 12,000 g for 15 min at 4° C. prior to immunoprecipitation. Immunoprecipitations were carried out with incubating 0.5-1 mg of total lysate with rabbit anti-PDX1 (1:500), rabbit anti-MST1 (1:50), mouse anti-Myc (1:1000) and rabbit anti-GFP (1:1000) antibodies on a rotator at 4° C. overnight. Immunocomplexes were then captured with Protein A Agarose Fast Flow (Millipore) by rotation at 4° C. for 4 h. After five washes with cold lysis buffer, the immunoprecipitates were used for kinase assays or resuspended in sample buffer and separated by NuPAGE 4-12% Bis-Tris gels (Invitrogen).
Purified human active MST1 (Upstate Biotechnology) was incubated with ^32P-ATP (2 μCi, Perkin Elmer Life Sciences), ATP (100 μM) and 1 mM dithiothreitol (DTT) in a kinase buffer containing 40 mM HEPES (pH 7.4), 20 mM MgCl2, 1 mM EDTA and 1 μg of purified recombinant human PDX-1 (Abcam) or bacterially purified GST-PDX1 (WT and mutants) as substrates. After incubation at 30° C. for 30 min, the reaction was stopped by adding loading buffer and proteins were separated on NuPAGE gels and phosphorylation levels visualized either by autoradiography or specific antibody for phospho-PDX1. The total PDX1 was detected with anti-PDX1 antibody.
Expression and induction of recombinant GST proteins were performed as described previously (Tolia et al., Nat. Methods 3 (2006), 55-64). Escherichia coli BL21 cells with various GST-fusion expression plasmids were cultured at 37° C. and expression of recombinant proteins was induced by 0.1 mM final concentration of Isopropyl-β-D-thio-galactoside (IPTG; sigma) for 2.5 h. Cells were lysed using B-PER bacterial protein extraction reagent (Pierce) and purified using Glutathione Spin Columns (Pierce).

Molecule: CC(C)C[C@@H](C=O)NC(=O)[C@H](CC(C)C)NC(=O)[C@H](CC(C)C)NC(=O)OCc1ccccc1 [MG-132, reference compound] (Cbz-Leu-Leu-Leu-aldehyde)
- disappearance of PDX1 ([1]; PDX1 overexpressing HEK293 cells with MST1, MG-132 50 μM for 6 h): abolished

Molecule: GLP1: Glucagon like-peptide 1 (Sigma), exogenously added mitogen (HAEGTFTSDVSSYLEGQAAKEFIAWLVKGR; ends and bridges not checked; UniProt P01275 98-127, looked up)
- glucose- and cytokine-induced P-MST1, MST1-cleavage and apoptosis [2]: inhibited

Molecule: PDX1-T11A: mutant PDX1 with amino acid Thr11 substituted to alanine, inert to phosphorylation by MST1
- MST1-induced impairment in GSIS [3]: normalized
- Reduction of PDX1 transcriptional activity by MST1 [4]: not
- MST1-induced rapid degradation of PDX1 in the presence of CHX ([1]; 50 μg/ml CHX): did not occur
- PDX1 levels in presence of MST1 ([1]; HEK293 cells, 48 h): does not decrease
- PDX1 ubiquitination ([1]; HEK293 cells, HA-ubiquitin, 48 h, MG-132 last 6 h): less
- MST1-induced down regulation of PDX1 target genes [5]: restored
- MST1-induced impairment in GSIS [6]: normalized
- MST1-induced down regulation of PDX1 target genes [7]: restored
- phosphorylation by recombinant MST1 of PDX1 immunoprecipitated from HEK293 cells ([8]; all PDX1 mutants transfected into HEK293): markedly decreased
- MST1-induced phosphorylation at the Thr11 site and overall Thr-phosphorylation ([8]; p-T11 and pan-Threonine antibodies, immunoprecipitated PDX1): markedly reduced
- threonine phosphorylation of PDX1-GST fusion proteins by MST1 ([8]; proteins purified from bacteria, pan-phospho threonine antibody): exception

Molecule: insulin: recombinant human insulin
- glucose- and cytokine-induced P-MST1, MST1-cleavage and apoptosis [2]: inhibited

Molecule: z-DEVD-fmk
- stress-induced MST1 cleavage by diabetic stimuli ([2]; human islets and INS-1E cells): JNK and caspase-3 were responsible for stress-induced MST1 cleavage

From patent US20160083733A1, “NOVEL TREATMENT OF METABOLIC DISEASES” (UNIVERSITY OF BREMEN, priority 2013, published 2016)
